From patent US11986532B2 (Arvinas Operations, Inc., priority 2021, dated 2024) come the findings set out here.

This assay addresses T1, BCL6 (Homo sapiens, UniProt P41182).
T1 construct: endogenous in cells; host or cells: T47D breast cancer epithelial cells
Briefly: Immunofluorescence protocol for high content imaging of BCL6 (degradation) in T47D cells, 3 days compound treatment. The assay is classed as cell-based. The following applies: for Dmax: read-out: Mean Dmax (%)** category; for DC50: read-out: Mean DC50 (nM)* category. In short, it runs like this: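 For degradation, compound series (3-fold, 11 points, top 0.1 or 1 μM final) were added to adherent T47D cultures for 3 days. BCL6 immunostaining used a rabbit antibody at 1:300 and an Alexa-488 secondary, with imaging at 10× magnification.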

Where [1] appears, read: T47D cells, 3 days compound treatment.

Like-named read-outs stand apart in the source and are kept apart here.

As a reminder, the Dmax is the greatest extent of degradation seen. In general, DC50 refers to the concentration giving 50% degradation.

As to `CNC(=O)COc1cc2cc(Nc3nc(N4CCC(O[C@H]5C[C@H](N6CC7(CCN(c8ccc9c(c8C)C(=O)N(C8CCC(=O)NC8=O)C9=O)CC7)C6)C5)CC4)ncc3Cl)ccc2n(C(C)C)c1=O` (some centres unmarked) [Compound 418, 2-({6-[(5-chloro-2-{4-[(1r,3r)-3-{7-[2-(2,6-dioxopiperidin-3-yl)-4-methyl-1,3-dioxo-2,3-dihydro-1H-isoindol-5-yl]-2,7-diazaspiro[3.5]nonan-2-yl}cyclobutoxy]piperidin-1-yl}pyrimidin-4-yl)amino]-2-oxo-1-(propan-2-yl)-1,2-dihydroquinolin-3-yl}oxy)-N-methylacetamide], the DC50 is less than 10 nM. Besides, the Dmax (T47D) was not below 70%.
For `CNC(=O)COc1cc2cc(Nc3nc(N4CCC(O[C@H]5C[C@@H](N6CCC(c7ccc8c(c7)C(=O)N(C7CCC(=O)NC7=O)C8=O)CC6)C5)CC4)ncc3Cl)ccc2n(C(C)C)c1=O` (some centres unmarked) [Compound 153, 2-({6-[(5-chloro-2-{4-[(1s,3s)-3-{4-[2-(2,6-dioxopiperidin-3-yl)-1,3-dioxo-2,3-dihydro-1H-isoindol-5-yl]piperidin-1-yl}cyclobutoxy]piperidin-1-yl}pyrimidin-4-yl)amino]-2-oxo-1-(propan-2-yl)-1,2-dihydroquinolin-3-yl}oxy)-N-methylacetamide], under setting [1], the DC50 was 50 to 100 nM and the Dmax was less than 50%.
The like results for `CNC(=O)COc1cc2cc(Nc3nc(N4CCC(F)(CN5CCC6(CCN(c7ccc8c(c7)CN(C7CCC(=O)NC7=O)C8=O)C6)C5)CC4)ncc3Cl)ccc2n(C(C)C)c1=O` (centres unmarked) [Compound 17, 2-{[6-({5-chloro-2-[4-({7-[2-(2,6-dioxopiperidin-3-yl)-1-oxo-2,3-dihydro-1H-isoindol-5-yl]-2,7-diazaspiro[4.4]nonan-2-yl}methyl)-4-fluoropiperidin-1-yl]pyrimidin-4-yl}amino)-2-oxo-1-(propan-2-yl)-1,2-dihydroquinolin-3-yl]oxy}-N-methylacetamide] were, in that order, less than 10 nM and less than 50%.
The like results for `CNC(=O)COc1cc2cc(Nc3nc(N4CCC(F)(CN5CC6(CCN(c7cc8c(cc7F)C(=O)N(C7CCC(=O)NC7=O)C8)CC6)C5)CC4)ncc3Cl)ccc2n(C(C)C)c1=O` (centres unmarked) [Compound 106] were, in that order, less than 10 nM and 50 to 70%.
As to `CNC(=O)COc1cc2cc(Nc3nc(N4CCC(O[C@H]5C[C@H](N6CCN(c7cc8c(cc7OC)C(=O)N(C7CCC(=O)NC7=O)C8=O)CC6)C5)CC4)ncc3Cl)ccc2n(C(C)C)c1=O` (some centres unmarked) [Compound 423, 2-({6-[(5-chloro-2-{4-[(1r,3r)-3-{4-[2-(2,6-dioxopiperidin-3-yl)-6-methoxy-1,3-dioxo-2,3-dihydro-1H-isoindol-5-yl]piperazin-1-yl}cyclobutoxy]piperidin-1-yl}pyrimidin-4-yl)amino]-2-oxo-1-(propan-2-yl)-1,2-dihydroquinolin-3-yl}oxy)-N-methylacetamide], the DC50 was less than 10 nM. For the same compound, under “T47D”, the Dmax was not below 70%.
As to `CNC(=O)COc1cc2cc(Nc3nc(N4CCC(OC5CN([C@H]6CC[C@H](c7ccc8c(c7)CN(C7CCC(=O)NC7=O)C8=O)CC6)C5)CC4)ncc3Cl)ccc2n(C(C)C)c1=O` (single isomer, unassigned) [Compound 165, 2-((6-((5-chloro-2-(4-((1-((1r,4r)-4-(2-(2,6-dioxopiperidin-3-yl)-1-oxoisoindolin-5-yl)cyclohexyl)azetidin-3-yl)oxy)piperidin-1-yl)pyrimidin-4-yl)amino)-1-isopropyl-2-oxo-1,2-dihydroquinolin-3-yl)oxy)-N-methylacetamide], under setting [1], the DC50 is less than 10 nM and the Dmax was 50 to 70%.
`CNC(=O)COc1cc2cc(Nc3nc(N4CCC(O[C@H]5C[C@H](N6CCN(c7ccc8c(c7)C(=O)N(C7CCC(=O)NC7=O)C8=O)[C@H](C)C6)C5)CC4)ncc3Cl)ccc2n(C(C)C)c1=O` (stereo partly drawn) [Compound 387, 2-({6-[(5-chloro-2-{4-[(1r,3r)-3-[(3R)-4-[2-(2,6-dioxopiperidin-3-yl)-1,3-dioxo-2,3-dihydro-1H-isoindol-5-yl]-3-methylpiperazin-1-yl]cyclobutoxy]piperidin-1-yl}pyrimidin-4-yl)amino]-2-oxo-1-(propan-2-yl)-1,2-dihydroquinolin-3-yl}oxy)-N-methylacetamide]: the DC50 was less than 10 nM. Moreover, the Dmax (T47D) was 50 to 70%.
Consider `CNC(=O)COc1cc2cc(Nc3nc(N4CCC(CN5CCC6(CC5)CN(c5ccc7c(c5F)CN(C5CCC(=O)NC5=O)C7=O)C6)CC4)ncc3Cl)ccc2n(C(C)C)c1=O` (centres unmarked) [Compound 71, 2-{[6-({5-chloro-2-[4-({2-[2-(2,6-dioxopiperidin-3-yl)-4-fluoro-1-oxo-2,3-dihydro-1H-isoindol-5-yl]-2,7-diazaspiro[3.5]nonan-7-yl}methyl)piperidin-1-yl]pyrimidin-4-yl}amino)-2-oxo-1-(propan-2-yl)-1,2-dihydroquinolin-3-yl]oxy}-N-methylacetamide], for which, under setting [1], the DC50 was less than 10 nM and the Dmax was 50 to 70%.
Take `CNC(=O)COc1cc2cc(Nc3nc(N4CCN(C(C)(C)C5CCN(c6ccc7c(c6F)CN(C6CCC(=O)NC6=O)C7=O)CC5)CC4)ncc3Cl)ccc2n(C(C)C)c1=O` (centres unmarked) [Compound 89, 2-{[6-({5-chloro-2-[4-(2-{1-[2-(2,6-dioxopiperidin-3-yl)-4-fluoro-1-oxo-2,3-dihydro-1H-isoindol-5-yl]piperidin-4-yl}propan-2-yl)piperazin-1-yl]pyrimidin-4-yl}amino)-2-oxo-1-(propan-2-yl)-1,2-dihydroquinolin-3-yl]oxy}-N-methylacetamide]: under setting [1], the DC50 is less than 10 nM and the Dmax was in the range of 50 to 70%.
The like results for `CNC(=O)COc1cc2cc(Nc3nc(N4CCC(O[C@H]5CC[C@H](N(C)C6CN(c7ccc8c(c7)C(=O)N(C7CCC(=O)NC7=O)C8=O)C6)CC5)CC4)ncc3Cl)ccc2n(C(C)C)c1=O` (some centres unmarked) [Compound 107, 2-[(6-{[5-chloro-2-(4-{[(1r,4r)-4-({1-[2-(2,6-dioxopiperidin-3-yl)-1,3-dioxo-2,3-dihydro-1H-isoindol-5-yl]azetidin-3-yl}(methyl)amino)cyclohexyl]oxy}piperidin-1-yl)pyrimidin-4-yl]amino}-2-oxo-1-(propan-2-yl)-1,2-dihydroquinolin-3-yl)oxy]-N-methylacetamide] were, in that order, less than 10 nM and 50 to 70%.
Consider `CNC(=O)COc1cc2cc(Nc3nc(N4CCN(C[C@H]5C[C@H](N6CCN(c7ccc8c(c7)CN(C7CCC(=O)NC7=O)C8=O)CC6)C5)CC4)ncc3Cl)ccc2n(C(C)C)c1=O` (some centres unmarked) [Compound 342, 2-[(6-{[5-chloro-2-(4-{[(1r,3r)-3-{4-[2-(2,6-dioxopiperidin-3-yl)-1-oxo-2,3-dihydro-1H-isoindol-5-yl]piperazin-1-yl}cyclobutyl]methyl}piperazin-1-yl)pyrimidin-4-yl]amino}-2-oxo-1-(propan-2-yl)-1,2-dihydroquinolin-3-yl)oxy]-N-methylacetamide], for which the DC50 was less than 10 nM. The Dmax (T47D) was not below 70%.
In the case of `CNC(=O)COc1cc2cc(Nc3nc(N4CCC(CN5CCC6(CN(c7cccc8c7C(=O)N(C7CCC(=O)NC7=O)C8=O)C6)C(F)(F)C5)CC4)ncc3Cl)ccc2n(C(C)C)c1=O` (centres unmarked) [Compound 91, 2-{[6-({5-chloro-2-[4-({2-[2-(2,6-dioxopiperidin-3-yl)-1,3-dioxo-2,3-dihydro-1H-isoindol-4-yl]-5,5-difluoro-2,7-diazaspiro[3.5]nonan-7-yl}methyl)piperidin-1-yl]pyrimidin-4-yl}amino)-2-oxo-1-(propan-2-yl)-1,2-dihydroquinolin-3-yl]oxy}-N-methylacetamide], under setting [1], the half-maximal degradation concentration (DC50) is less than 10 nM and the Dmax fell in the range of 50 to 70%.
Take `CNC(=O)COc1cc2cc(Nc3nc(N4CCC(O[C@H]5C[C@H](N6CC7(CCN(c8ccc9c(c8)CN(C8CCC(=O)NC8=O)C9=O)C7)C6)C5)CC4)ncc3Cl)ccc2n(C(C)C)c1=O` (some centres unmarked) [Compound 351, 2-({6-[(5-chloro-2-{4-[(1r,3r)-3-{6-[2-(2,6-dioxopiperidin-3-yl)-1-oxo-2,3-dihydro-1H-isoindol-5-yl]-2,6-diazaspiro [3.4]octan-2-yl}cyclobutoxy]piperidin-1-yl}pyrimidin-4-yl)amino]-2-oxo-1-(propan-2-yl)-1,2-dihydroquinolin-3-yl}oxy)-N-methylacetamide]: the DC50 was less than 10 nM. For the same compound, the Dmax (T47D) was not below 70%.
In the case of `CNC(=O)COc1cc2cc(Nc3nc(N4CCC(N5CCC6(CN(CC7CCN(c8ccc9c(c8)C(=O)N(C8CCC(=O)NC8=O)C9=O)CC7)C6)C5)CC4)ncc3Cl)ccc2n(C(C)C)c1=O` (centres unmarked) [Compound 228, 2-({6-[(5-chloro-2-{4-[2-({1-[2-(2,6-dioxopiperidin-3-yl)-1,3-dioxo-2,3-dihydro-1H-isoindol-5-yl]piperidin-4-yl}methyl)-2,6-diazaspiro[3.4]octan-6-yl]piperidin-1-yl}pyrimidin-4-yl)amino]-2-oxo-1-(propan-2-yl)-1,2-dihydroquinolin-3-yl}oxy)-N-methylacetamide], the DC50 is 10 to 50 nM. In addition, the Dmax (T47D) was in the range of 50 to 70%.
Turning to `CNC(=O)COc1cc2cc(Nc3nc(N4CCC5(CC4)CN(C(=O)C4CCN(c6cccc7c6CN(C6CCC(=O)NC6=O)C7=O)CC4)C5)ncc3Cl)ccc2n(C(C)C)c1=O` (centres unmarked) [Compound 22, 2-[(6-{[5-chloro-2-(2-{1-[2-(2,6-dioxopiperidin-3-yl)-1-oxo-2,3-dihydro-1H-isoindol-4-yl]piperidine-4-carbonyl}-2,7-diazaspiro[3.5]nonan-7-yl)pyrimidin-4-yl]amino}-2-oxo-1-(propan-2-yl)-1,2-dihydroquinolin-3-yl)oxy]-N-methylacetamide], under setting [1], the DC50 is less than 10 nM and the Dmax lay in the range of 50 to 70%.
The like results for `CNC(=O)COc1cc2cc(Nc3nc(N4CCN(CC5CCN(c6cc7c(c(OC)c6)C(=O)N(C6CCC(=O)NC6=O)C7)CC5)CC4)ncc3Cl)ccc2n(C(C)C)c1=O` (centres unmarked) [Compound 26] were, in that order, less than 10 nM and 50 to 70%.
